Data on nine molecules can be found in publication PMC10673615, “Quercetin-1,2,3-Triazole Hybrids as Multifunctional Anti-Alzheimer’s Agents” (Molecules, 2023).

For orientation: inhibition means the relative decrease from the control value, in per cent. Read a low inhibition as a response near the control. The term IC50 denotes the concentration that gives 50% inhibition.

One assay has as its target T1, eqBuChE (Equus caballus, UniProt P81908).
T1 construct: equine serum butyrylcholinesterase (eqBuChE); purchased Sigma-Aldrich (lyophilized powder, 10.9 U/mg); host or cells: equine serum
The experiment in a line: Ellman cholinesterase inhibitory assay, eqBuChE (screening and IC50). The format is biochemical. The note with it: for inhibition at 100 µM: compound 100 µM, substrate 3 mM; for IC50: concentration range 1.2-300 µM, BTCI 0.8 mM, read-out: IC50 values for eqBuChE. The protocol:
(§1) Firstly, the inhibitory activity of the quercetin-1,2,3-triazole hybrids I–IV was screened in vitro on eeAChE and eqBuChE at a concentration of 100 μM (these enzymes are considered as models of the human isoform). The ChE inhibitory activity of all compounds was evaluated using the method of Ellman.
(§2) The inhibitory activities of title compounds against commercially available cholinesterases (eeAChE) (Electrophorus electricus, Type V-S), eqBuChE (equine serum), were conducted using minor modifications of Ellman’s assay. Nine different concentrations ([…], 37.5, 75, 150, and 300 μM in H2O:DMSO (50:50)) of each test compound were used to determine the enzyme-inhibition activity. Briefly, 55 μL of 50 mM Tris-HCl buffer at pH 8, 25 μL of eqBuChE (0.03 U/mL), 20 μL of the test or standard compounds, and 125 μL of DTNB (0.8 mM) were incubated in 96-well plates at 37 °C for 15 min. Further, 25 μL of the substrate, BTCI (0.8 mM), was added, and the solution was incubated for additional 15 min. Finally, the absorbance was measured at 412 nm wavelength using a Microplate Spectrophotometry (TriStar® S LB 942 model instrument). The IC50 values were determined from the absorbance obtained for various concentrations of the test and the standard compounds. All determinations were performed in triplicate.
(§3) To determine the % of inhibition ([I] = 100 μM), the substrate concentration (acetylthiocholine iodide for AChE; S-butyrylthiocholine iodide for BuChE) was fixed at 3 mM.
In general terms: Ellman's reagent forms a yellow product with free thiols.

Another assay concerns the target T2, eeAChE (Electrophorus electricus, UniProt O42275).
T2 construct: catalogue number not given
In words: Ellman cholinesterase inhibitory assay, eeAChE screening. The format is biochemical. Particulars: compound 100 µM; substrate 3 mM. The protocol: as §1, §2, §3

T2 sequence (O42275 24-633): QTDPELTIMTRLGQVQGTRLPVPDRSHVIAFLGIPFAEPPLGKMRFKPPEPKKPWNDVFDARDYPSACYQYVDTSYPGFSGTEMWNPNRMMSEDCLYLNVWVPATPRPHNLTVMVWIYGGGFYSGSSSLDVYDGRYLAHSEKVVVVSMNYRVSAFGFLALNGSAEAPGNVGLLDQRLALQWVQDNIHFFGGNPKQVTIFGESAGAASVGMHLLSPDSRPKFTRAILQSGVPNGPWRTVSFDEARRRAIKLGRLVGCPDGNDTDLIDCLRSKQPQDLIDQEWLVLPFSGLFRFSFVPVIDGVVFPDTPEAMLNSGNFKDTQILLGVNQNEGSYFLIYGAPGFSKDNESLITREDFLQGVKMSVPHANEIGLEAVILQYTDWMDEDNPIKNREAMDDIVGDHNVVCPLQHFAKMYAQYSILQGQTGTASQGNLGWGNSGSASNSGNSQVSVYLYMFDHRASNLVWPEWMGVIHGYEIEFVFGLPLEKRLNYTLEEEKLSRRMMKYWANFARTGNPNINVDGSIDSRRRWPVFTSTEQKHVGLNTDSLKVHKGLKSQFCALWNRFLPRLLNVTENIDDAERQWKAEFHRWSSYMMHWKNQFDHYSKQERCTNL
T1 sequence (P81908 whole entry): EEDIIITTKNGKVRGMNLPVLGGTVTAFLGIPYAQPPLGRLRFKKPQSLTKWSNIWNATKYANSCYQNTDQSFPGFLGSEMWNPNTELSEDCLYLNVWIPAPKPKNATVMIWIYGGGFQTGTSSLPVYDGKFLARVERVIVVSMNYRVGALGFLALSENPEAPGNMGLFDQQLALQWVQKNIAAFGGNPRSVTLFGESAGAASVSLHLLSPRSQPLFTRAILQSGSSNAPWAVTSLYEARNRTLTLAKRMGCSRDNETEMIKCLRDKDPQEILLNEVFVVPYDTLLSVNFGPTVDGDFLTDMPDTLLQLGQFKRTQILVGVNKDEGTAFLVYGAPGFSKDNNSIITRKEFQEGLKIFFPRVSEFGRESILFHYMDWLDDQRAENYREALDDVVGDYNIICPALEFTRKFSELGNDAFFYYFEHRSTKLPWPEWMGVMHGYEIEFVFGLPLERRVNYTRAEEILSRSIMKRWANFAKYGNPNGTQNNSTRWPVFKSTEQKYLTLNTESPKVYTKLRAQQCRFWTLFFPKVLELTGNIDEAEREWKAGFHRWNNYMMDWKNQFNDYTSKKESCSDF

Take `O=c1c(OCCCCn2cc(-c3ccccc3)nn2)c(-c2ccc(OCc3ccccc3)c(OCc3ccccc3)c2)oc2cc(OCc3ccccc3)cc(OCc3ccccc3)c12` [IIIa, 5,7-Bis(benzyloxy)-2-(3,4-bis(benzyloxy)phenyl)-3-(4-(4-phenyl-1H-1,2,3-triazol-1-yl)butoxy)-4H-chromen-4-one]: the inhibition at 100 µM against eqBuChE was determined as 46.9%; on eeAChE, 40.6%.

On to `O=c1c(OCCCCn2cc(C3(O)CCCC3)nn2)c(-c2ccc(OCc3ccccc3)c(OCc3ccccc3)c2)oc2cc(OCc3ccccc3)cc(OCc3ccccc3)c12` [IIIc, 5,7-Bis(benzyloxy)-2-(3,4-bis(benzyloxy)phenyl)-3-(4-(4-(1-hydroxycyclopentyl)-1H-1,2,3-triazol-1-yl)butoxy)-4H-chromen-4-one], for which the inhibition at 100 µM stood at 26.9% against eqBuChE and 17.2% against eeAChE.

For `CC(C)(O)c1cn(CCCCOc2c(-c3ccc(OCc4ccccc4)c(OCc4ccccc4)c3)oc3cc(OCc4ccccc4)cc(OCc4ccccc4)c3c2=O)nn1` [IIId, 5,7-Bis(benzyloxy)-2-(3,4-bis(benzyloxy)phenyl)-3-(4-(4-(2-hydroxypropan-2-yl)-1H-1,2,3-triazol-1-yl)butoxy)-4H-chromen-4-one], the inhibition at 100 µM was found to be 27.3% against eqBuChE and 15.1% at eeAChE.

For the molecule `O=C1C(=O)N(Cc2cn(CCCCOc3c(-c4ccc(OCc5ccccc5)c(OCc5ccccc5)c4)oc4cc(OCc5ccccc5)cc(OCc5ccccc5)c4c3=O)nn2)c2ccccc21` [IIIf, 1-((1-(4-((5,7-Bis(benzyloxy)-2-(3,4-bis(benzyloxy)phenyl)-4-oxo-4H-chromen-3-yl)oxy)butyl)-1H-1,2,3-triazol-4-yl)methyl)indoline-2,3-dione], the inhibition at 100 µM on eqBuChE was 34.5%; on eeAChE, 0%.

As to `COc1cc(OC)c2c(=O)c(OCCCCn3cc(-c4ccccc4)nn3)c(-c3ccc(OC)c(OC)c3)oc2c1` [IIa, 2-(3,4-Dimethoxyphenyl)-5,7-dimethoxy-3-(4-(4-phenyl-1H-1,2,3-triazol-1-yl)butoxy)-4H-chromen-4-one], the inhibition at 100 µM on eqBuChE turned out to be 55.3%; at eeAChE it was 7.75%. At eqBuChE, the IC50 was over 300 µM.

Consider `COc1cc(OC)c2c(=O)c(OCCCCn3cc(C4CC4)nn3)c(-c3ccc(OC)c(OC)c3)oc2c1` [IIb, 2-(3,4-Dimethoxyphenyl)-3-(4-(4-cyclopropyl-1H-1,2,3-triazol-1-yl)butoxy)-5,7-dimethoxy-4H-chromen-4-one], for which, on eqBuChE, the inhibition at 100 µM is 54.4% and the IC50 is over 300 µM. Further, 100 µM produced 0% inhibition against eeAChE.

On to `COc1cc(OC)c2c(=O)c(OCCCCn3cc(C4(O)CCCC4)nn3)c(-c3ccc(OC)c(OC)c3)oc2c1` [IIc, 2-(3,4-Dimethoxyphenyl)-3-(4-(4-(1-hydroxycyclopentyl)-1H-1,2,3-triazol-1-yl)butoxy)-5,7-dimethoxy-4H-chromen-4-one], for which, on eqBuChE, 100 µM produced 69.6% inhibition and the half-maximal inhibitory concentration (IC50) was over 300 µM. This molecule also yielded an inhibition at 100 µM against eeAChE of 0%.

Turning to `COc1cc(OC)c2c(=O)c(OCCCCn3cc(C(C)(C)O)nn3)c(-c3ccc(OC)c(OC)c3)oc2c1` [IId, 2-(3,4-Dimethoxyphenyl)-3-(4-(4-(2-hydroxypropan-2-yl)-1H-1,2,3-triazol-1-yl)butoxy)-5,7-dimethoxy-4H-chromen-4-one], the figures for the inhibition at 100 µM against eqBuChE and at eeAChE were 60.6% and 0%, respectively. The IC50 on eqBuChE is over 300 µM.

Turning to `COc1cc(OC)c2c(=O)c(OCCCCn3cc(COc4cc(C)ccc4C(C)C)nn3)c(-c3ccc(OC)c(OC)c3)oc2c1` [IIe, 2-(3,4-Dimethoxyphenyl)-3-(4-(4-((2-isopropyl-5-methylphenoxy)methyl)-1H-1,2,3-triazol-1-yl)butoxy)-5,7-dimethoxy-4H-chromen-4-one], at eqBuChE, at 100 µM the inhibition was 81.7% and the IC50 amounted to 26.6 µM. This molecule also displayed an inhibition at 100 µM on eeAChE of 4.13%.
